Read-outs that look alike come from different tables or passages of the source. Bounds are passed on as bounds.

The text below walks through data of PMC5288202, “Simultaneous inhibition of Vps34 kinase would enhance PI3Kδ inhibitor cytotoxicity in the B-cell malignancies” (Oncotarget, 2016).

Type in all cases: cell-based
One assay concerns U937. The assay is described as follows: Anti-proliferative effect. The note with it: Homo sapiens, U-937; AML(FLT3wt); read-out: GI50 U937.
A further assay has as its system CMK. The assay is described as follows: Anti-proliferative effect. As to conditions: Homo sapiens, read-out: GI50 CMK.
A further assay concerns NB4. As to the kind of experiment: Anti-proliferative effect. The note with it: Homo sapiens; AML-3 (FLT3wt); read-out: GI50 NB4.
The test system of another assay is HL-60. As to the kind of experiment: Anti-proliferative effect. As to conditions: Homo sapiens, HL-60; AML (FLT3 wt); read-out: GI50 HL-60.
The next assay concerns OCI-AML-3. The assay is described as follows: Anti-proliferative effect. The note with it: Homo sapiens, AML(FLT3wt).
Assay [1] concerns OCI-AML-2. The assay is described as follows: Anti-proliferative effect. As to conditions: Homo sapiens, OCI-AML2; AML(FLT3wt); read-out: GI50 OCI-AML-2.
The subject of the next assay is NOMO-1. The assay is described as follows: Anti-proliferative effect. The note with it: Homo sapiens, NOMO-1; AML (FLT3wt); read-out: GI50 NOMO-1.
In a further assay the test system is SKM-1. The assay is described as follows: Anti-proliferative effect. As to conditions: Homo sapiens, SKM-1; AML(FLT3wt); read-out: GI50 SKM-1.
Another assay concerns MOLM-14. The assay is described as follows: Anti-proliferative effect. As to conditions: Homo sapiens, MOLM-14; AML (FLT3-ITD).
A further assay has as its system MOLM-13. The assay is described as follows: Anti-proliferative effect. As to conditions: Homo sapiens, AML(FLT3-ITD).
Assay [2] deals with MV4-11. The assay is described as follows: Anti-proliferative effect. The note with it: Homo sapiens, MV4-11; AML (FLT3-ITD).
Another assay has as its system HEL. The assay is described as follows: Anti-proliferative effect. The note with it: Homo sapiens, AML(FLT3wt), read-out: GI50 HEL.
A further assay has as its system HT. The assay is described as follows: Anti-proliferative effect. The note with it: Homo sapiens, B-cell lymphoma, read-out: GI50 HT.
The subject of the next assay is Ramos. The assay is described as follows: Anti-proliferative effect. As to conditions: Homo sapiens, Burrkit lymphoma, read-out: GI50 Ramos.
For assay [3], the system named is Namalwa. As to the kind of experiment: Anti-proliferative effect. As to conditions: Burrkit lymphoma; read-out: GI50 Namalwa.
Assay [4] relates to MEC-2. As to the kind of experiment: Anti-proliferative effect.
The next assay relates to Hs 505T. As to the kind of experiment: Anti-proliferative effect. The note with it: Homo sapiens; CLL; read-out: GI50 Hs 505T.
In the next assay the test system is MEC-1. As to the kind of experiment: Anti-proliferative effect. The note with it: Homo sapiens, MEC1; CLL.
In the next assay the test system is pERK in MEC-2 cells. The assay is described as follows: pERK immunoblotting. From the text:
The following antibodies were purchased from Cell Signaling Technology: Akt(#4691), Phospho-Akt(Thr308)(#4056), Phospho-Akt(Ser473)(#4060), GAPDH, GSK-3β(#9315), Phospho-GSK-3β(#9323), FoxO1(#2880), Phospho-FoxO1 (Thr24)/FoxO3a(Thr32)/FoxO4(Thr28)(#2599), PRAS40(#2691), Phospho-PRAS40 (Thr246)(#2997), 4E-BP1(#9644), p70 S6K(#2708), Phospho-p70 S6K (Thr389)(#9234). SQSTM1/p62 (D5E2)(#8025), LC3B(#12513). PARP(#9532), Caspase-3(#9665), Phospho-p44/42 MAPK (Erk1/2) (Thr202/Tyr204)(#4377), p44/42 MAPK (Erk1/2) (#4695), Phospho-NF-ΚB P65 (Ser 536)(#3033), NF-ΚB P65(#4764). Lysophosphatidic Acid (#sc-201053, Santa Cruz), Recombinant Human PDGF-BB (#220-BB, R&D), Recombinant Human C5a (Peprotech, #300-70), goat anti-IgM (#5C07615, Meridian). LC3B antibody (#3868, CST). Tubulin antibody (#8035, Santa Cruz). EEA1 antibody (#610456, BD Bioscience) and LAMP1 antibody (#24170, Abcam). Secondary antibodies, Alexa488-anti-mouse, Alexa594-anti-rabbit and Prolong gold mounting medium with DAPI were purchased from Invitrogen.

Assay [5] concerns LC3B puncta in HeLa cells. As to the kind of experiment: Immunofluorescence of LC3B puncta. The note with it: 16 hours. The procedure:
(§1) HeLa cells were treated with different concentrations of inhibitors for 16 hours. For all immunofluorescence experiments, cells were fixed in -20 °C methanol for 5 minutes or 3.7% (v/v) formaldehyde in phosphate-buffered saline (PBS) for 20 minutes. For LC3B staining, cells were fixed in -20 °C methanol. For EEA1 and LAMP1 staining, cells were fixed in PBS+ formaldehyde. Cells were then permeabilized with TBSTx (0.1% Triton X-100), blocked in AbDil (TBSTx + 2% BSA + 0.1% NaN3), and probed with primary and secondary antibodies diluted in AbDil. Cells were rinsed thoroughly with TBSTx and mounted by anti-fade prolong Gold with DAPI. Images were taken using a Leica DMI4000B fluorescent microscope. All experiments were repeated at least three times). […] Cells were lysed in lysis buffer. P62, LC3B, and GAPDH antibodies were used for immunoblotting.

For assay [6], the system named is LAMP1 localization in HeLa cells. As to the kind of experiment: Immunofluorescence of LAMP1 localization. The procedure: as §1
Assay [7] concerns MEC-2. As to the kind of experiment: Drug combination study (CellTiter-Glo, 72 hours). The note with it: MEC2, 72 h, read-out: Relative activity(%) (MEC-2). Here is the method: (§2) A combination of the PI3K kinase inhibitor CAL101 with the VPS34 inhibitor VPS34-IN-1, was used to treat the cell lines. Cell proliferation were determined after treatment with the compounds for 72 hours. Cell viability was measured using the CellTiter–Glo assay (Promega, USA), data were normalized to control groups (DMSO) and represented by the mean of three independent measurements with a standard error <20%.
In general terms: Cellular ATP, detected with luciferase, serves as a proxy for viable cell number.

Assay [8] concerns MV4-11. As to the kind of experiment: Drug combination study (CellTiter-Glo, 72 hours). The note with it: Homo sapiens, VPS34-IN-1 3.3 μM, normalized to DMSO, read-out: Relative activity(%) (MV4-11). Here is the method:
as §2

In assay [9] the test system is Namalwa. The assay is described as follows: Drug combination study (CellTiter-Glo, 72 hours). As to conditions: VPS34-IN-1 3.3 μM, normalized to DMSO, read-out: Relative activity(%) (Namalwa). Here is the method:
as §2

The subject of assay [10] is OCI-AML-2. As to the kind of experiment: Drug combination study (CellTiter-Glo, 72 hours). The note with it: Homo sapiens, OCI-AML2, VPS34-IN-1 1.1 μM, normalized to DMSO, read-out: Relative activity(%) (OCI-AML-2). The procedure:
as §2

For the compound `CC[C@H](Nc1ncnc2[nH]cnc12)c1nc2cccc(F)c2c(=O)n1-c1ccccc1` [CAL-101], the GI50 (usually the concentration that inhibits growth by half) with U937 is above 10000 nM; in the assay on CMK (AML(FLT3wt)) it was above 10000 nM; with NB4 it was above 10000 nM; in the assay on HL-60 it was above 10000 nM; with OCI-AML-3 it was 2400 nM; in the assay on OCI-AML-2 [1], above 10000 nM. In addition, the GI50 in the assay on NOMO-1 is above 10000 nM; in the assay with SKM-1 it was above 10000 nM; in the assay on MOLM-14, 7800 nM; in the assay on MOLM-13 it was above 10000 nM; in the assay on MV4-11 [2], above 10000 nM; in the assay on HEL, above 10000 nM. In addition, the GI50 in the assay with HT was above 10000 nM; with Ramos, above 10000 nM; in the assay on Namalwa [3] it was above 10000 nM; with MEC-2 [4] (MEC2, CLL, read-out: GI50 MEC-2), above 10000 nM; in the assay with Hs 505T, above 10000 nM; in the assay with MEC-1 it was above 10000 nM. The “effect on pERK” value with pERK in MEC-2 cells is listed as “significantly inhibited”.

As to `CS(=O)(=O)N1CCN(Cc2cc3nc(-c4cccc5[nH]ncc45)nc(N4CCOCC4)c3s2)CC1` [GDC-0941], the GI50 came out at 1600 nM with U937; 300 nM in the assay on CMK (AML(FLT3wt)); 1000 nM in the assay with NB4; 160 nM in the assay on HL-60; 730 nM with OCI-AML-3; 2000 nM in the assay on OCI-AML-2 [1]. Besides, the GI50 was 1000 nM in the assay on NOMO-1; 300 nM with SKM-1; 300 nM with MOLM-14; 150 nM in the assay with MOLM-13; 1400 nM in the assay with MV4-11 [2]; above 10000 nM with HEL. Besides, the GI50 in the assay on HT turned out to be 500 nM; in the assay with Ramos, 2100 nM; in the assay on Namalwa [3], 390 nM. Also, the “effect on pERK” value with pERK in MEC-2 cells is recorded as “significantly inhibited”.

Turning to `CC(C)(O)CNc1ncc(-c2ccnc(Nc3ccnc(Cl)c3)n2)c(CC2CC2)n1` [VPS34-IN-1], the “Effect on LC3B puncta” value in [5] was “increased LC3B puncta”. Besides, in assay [6], the “Effect on lysosome marker LAMP1 localization” value is reported as “affected”. For the same compound, the GI50 in the assay on U937 came out at 2100 nM; in the assay on CMK, 5900 nM; with NB4, 6400 nM; in the assay with HL-60, 510 nM; in the assay with OCI-AML-3, 3600 nM; in the assay on OCI-AML-2 [1], 6600 nM. For the same compound, the GI50 was determined as 1800 nM in the assay on NOMO-1; 6400 nM with SKM-1; 7800 nM with MOLM-14; 700 nM in the assay with MOLM-13; 2400 nM with MV4-11 [2]; 1700 nM in the assay on HEL. The GI50 was 1400 nM in the assay on HT; 3300 nM in the assay with Ramos; 8100 nM with Namalwa [3]; 3100 nM in the assay with MEC-2 [4] (MEC2, read-out: GI50 MEC-2); 3000 nM in the assay on Hs 505T; 3700 nM with MEC-1. Also, in the assay with MEC-2 [7], the activity at 10 µM is 30.4%. The activity at 3.3 µM in the assay with MV4-11 [8] is 43.6%; in the assay with Namalwa [9], 77.8%. Moreover, the activity at 1.1 µM in the assay on OCI-AML-2 [10] amounted to 82.8%.
